Results on 35 molecules are retold here after patent US20260042769A1, “TRIARYL AGONISTS OF ALPHA-2 ADRENERGIC RECEPTORS” (ALCEPTOR THERAPEUTICS, INC., priority 2023, published 2026).

pEC50: −log10 of the molar value.

The target in the experiment is T1, human ADRA2B receptor (Homo sapiens, UniProt P18089).
T1 construct: expressed in transfected cells
T1 sequence (P18089 1-450): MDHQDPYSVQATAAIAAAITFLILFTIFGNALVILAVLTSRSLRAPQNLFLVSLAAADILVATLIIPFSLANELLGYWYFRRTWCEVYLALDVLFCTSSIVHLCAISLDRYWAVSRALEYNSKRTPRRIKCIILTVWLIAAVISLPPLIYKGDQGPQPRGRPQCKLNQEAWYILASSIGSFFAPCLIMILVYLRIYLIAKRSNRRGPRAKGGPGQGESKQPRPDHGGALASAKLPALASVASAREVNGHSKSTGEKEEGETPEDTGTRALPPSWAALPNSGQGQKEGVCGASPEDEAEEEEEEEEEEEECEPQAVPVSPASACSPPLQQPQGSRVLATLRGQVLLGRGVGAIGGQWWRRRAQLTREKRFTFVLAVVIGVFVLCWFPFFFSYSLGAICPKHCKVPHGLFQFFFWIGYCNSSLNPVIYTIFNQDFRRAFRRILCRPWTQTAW
The experiment in a line: GTPγS agonist assay, ADRA2B receptor. The experiment is classed as biochemical. Conditions: read-out: GTPase - Human Alpha2B EC50. As to the method: GTP ? S Agonist Assays (ADRA2A, ADRA2B, and ADRA2C Receptors)
Membranes were prepared for GTP ? S binding assays from CHO-K1 cells stably expressing human ADRA2A, ADRA2B, or ADRA2C receptor. Briefly, cells were grown in 5-layer cell culture flasks. Cells were washed with 50 mL of PBS and then dissociated with 0.05% trypsin. Dissociated cells were then collected by centrifugation at 650×g for 8 min at 4° C. Pellets were washed again in PBS by centrifugation and resuspended in 30 mL of 20 mM HEPES, 10 mM EDTA, pH 7.4. After sitting on ice for 30 min, membranes were collected by centrifugation at 50000×g for 15 min at 4° C., resuspended in 30 mL of 20 mM HEPES, 0.1 mM EDTA, pH 7.4 and collected again by centrifugation. Pellets were then washed twice by centrifugation in 30 mL of 20 mM HEPES, pH 7.4, and stored at −80° C. until the day of the assay. On the day of the assay, pellets were thawed on ice and resuspended in 1 mL of 20 mM HEPES, pH 7.4, 10 mM MgCl2, 100 mM NaCl using dounce homogenization. Membrane protein concentration was determined by BCA protein assay (Promega, Madison, WI) according to Promega guidelines.
On the day of the assay, serial dilutions of test compounds were brought up in assay buffer (20 mM HEPES, 10 mM MgCl2, 200 mM NaCl) at 10× final assay concentration. 50 μL/well of membrane homogenates (containing 5 μg of membrane protein for ADRA2A, ADRA2B, or 7.5 μg for ADRA2C) were prepared in assay buffer supplemented with GDP at 2× final assay concentration (5 μM GDP) and dispensed into 96 well polypropylene, U-bottom Greiner plates. Then, 10 μL of compounds were added to assay plates and incubated for 10 min at room temperature. […] The binding reaction was incubated for 1 h at 37° C. Membranes in assay reactions were then transferred to GF/C filter plates (UniFilter, Perkin Elmer) and washed three times using a FilterMate Harvester (Perkin Elmer) with cold assay buffer containing no GDP. Filter plates were then dried at 40° C. overnight followed by the addition of 30 μL/well of Beta Plate Scintillation liquid. Plates were top and bottom sealed before being read on TopCount scintillation counter (Perkin Elmer, Waltham, MA).
Turning to `COc1nccc(CC(c2c[nH]cn2)c2cccc(C)c2Cl)n1` (centres unmarked) [Compound 186, 4-[2-(2-chloro-3-tolyl)-2-(4-imidazolyl)ethyl]-2-methoxypyrimidine], the pEC50 (as a rule, the negative decadic logarithm of the EC50, by convention in mol/L) was > 8.00.
Consider `Fc1ccc(C(Cc2cccnn2)c2c[nH]cn2)c(F)c1Cl` (centres unmarked) [Compound 173, 3-[2-(3-chloro-2,4-difluorophenyl)-2-(4-imidazolyl)ethyl] pyridazine], for which the pEC50 was < 6.30.
For `Cc1cccc([C@H](Cc2cccnn2)c2cnc[nH]2)c1C` [Compound 55, 3-[(2S)-2-(2,3-dimethylphenyl)-2-(1H-imidazol-4-yl)ethyl] pyridazine], the pEC50 was 7.30 to 8.00.
For `Cc1cccc([C@H](Cc2ccnc(C(F)(F)F)n2)c2cnc[nH]2)c1C` [Compound 72, 4-[(2S)-2-(2,3-dimethylphenyl)-2-(1H-imidazol-4-yl)ethyl]-2-(trifluoromethyl) pyrimidine], the pEC50 is > 8.00.
The value for `Cc1cc(C[C@H](c2cnc[nH]2)c2cccc(C)c2C)n(C)n1` [Compound 68, 5-[(2S)-2-(2,3-dimethylphenyl)-2-(1H-imidazol-4-yl)ethyl]-1,3-dimethyl-1H-pyrazole] was < 6.30; that for `Cc1cccc([C@H](Cc2ccon2)c2c[nH]cn2)c1C` [Compound 101, 3-[(S)-2-(4-imidazolyl)-2-(2,3-xylyl)ethyl] isoxazole] was 6.30 to 7.30.
For the molecule `Cc1cccc([C@H](Cc2ccnc(CF)n2)c2c[nH]cn2)c1C` [Compound 152, 4-[(S)-2-(4-imidazolyl)-2-(2,3-xylyl)ethyl]-2-(fluoromethyl) pyrimidine], the pEC50 is 6.30 to 7.30.
To `Cc1cncc(C[C@H](c2cnc[nH]2)c2cccc(C)c2C)n1` [Compound 82, 2-[(2S)-2-(2,3-dimethylphenyl)-2-(1H-imidazol-4-yl)ethyl]-6-methylpyrazine] belongs 6.30 to 7.30.
For `COc1cncc(CC(c2cnc[nH]2)c2cccc(C)c2C)n1` (centres unmarked) [Compound 89, 2-[2-(2,3-dimethylphenyl)-2-(1H-imidazol-4-yl)ethyl]-6-methoxy-pyrazine], the pEC50 is > 8.00.
The value for `c1ccc(C[C@@H](c2cnc[nH]2)c2cccc3c2CCO3)nc1` [Compound 42, 2-[(2R)-2-(2,3-dihydro-1-benzofuran-4-yl)-2-(1H-imidazol-4-yl)ethyl] pyridine] was 6.30 to 7.30; that for `Cc1cnc(C[C@@H](c2cnc[nH]2)c2cccc(C)c2C)nc1` [Compound 75, 2-[(2R)-2-(2,3-dimethylphenyl)-2-(1H-imidazol-4-yl)ethyl]-5-methylpyrimidine] was 6.30 to 7.30.
As to `Cc1cccc(C(Cc2ncco2)c2c[nH]cn2)c1C` (centres unmarked) [Compound 117, 2-[2-(4-imidazolyl)-2-(2,3-xylyl)ethyl]-1,3-oxazole], the pEC50 was 6.30 to 7.30.
Consider `Cc1cccc(C(Cc2cnn(C3CC3)c2)c2c[nH]cn2)c1C` (centres unmarked) [Compound 271, 1-cyclopropyl-4-[2-(4-imidazolyl)-2-(2,3-xylyl)ethyl]pyrazole], for which the pEC50 is > 8.00.
Take `Cc1cccc([C@H](Cc2ccnn2C)c2c[nH]cn2)c1C` [Compound 131, 5-[(S)-2-(4-imidazolyl)-2-(2,3-xylyl)ethyl]-1-methyl-pyrazole]: the pEC50 was 7.30 to 8.00.
Take `Cc1cccc([C@@H](Cc2cncs2)c2c[nH]cn2)c1C` [Compound 128, 5-[(R)-2-(4-imidazolyl)-2-(2,3-xylyl)ethyl]-1,3-thiazole]: the pEC50 was 6.30 to 7.30.
For `COc1c(Cl)cccc1C(Cc1cccnn1)c1c[nH]cn1` (centres unmarked) [Compound 160, 3-[2-(3-chloro-2-methoxyphenyl)-2-(4-imidazolyl)ethyl] pyridazine], the pEC50 was < 6.30.
For `C#Cc1cccc(C(Cc2cccnn2)c2c[nH]cn2)c1` (centres unmarked) [Compound 229, 3-[2-(m-ethynylphenyl)-2-(4-imidazolyl)ethyl] pyridazine], the pEC50 was < 6.30.
`Cc1cccc([C@@H](Cc2cccnn2)c2cnc[nH]2)c1C` [Compound 56, 3-[(2R)-2-(2,3-dimethylphenyl)-2-(1H-imidazol-4-yl)ethyl] pyridazine]: the pEC50 is < 6.30.
To `Cn1ncc2cc(C(Cc3cccnn3)c3c[nH]cn3)ccc21` (centres unmarked) [Compound 230, 5-[1-(4-imidazolyl)-2-(3-pyridazinyl)ethyl]-1-methyl-1H-indazole] belongs < 6.30; to `COc1cccc(C[C@H](c2cccc(C)c2)c2cnc[nH]2)n1` [Compound 24, 2-[(2R)-2-(1H-imidazol-4-yl)-2-(3-methylphenyl)ethyl]-6-methoxypyridine], < 6.30; to `COc1cccc(CC(c2c[nH]cn2)c2cccc3c2OC(F)(F)O3)n1` (centres unmarked) [Compound 125, 2,2-difluoro-4-[1-(4-imidazolyl)-2-(6-methoxy-2-pyridyl)ethyl]-2H-1,3-benzodioxole], 7.30 to 8.00.
With `FC(F)(F)Oc1cccc([C@@H](Cc2ccccn2)c2cnc[nH]2)c1` [Compound 36, 2-[(2R)-2-(1H-imidazol-4-yl)-2-[3-(trifluoromethoxy)phenyl]ethyl] pyridine], the pEC50 is 7.30 to 8.00.
For `COCCNc1cccc(CC(c2cnc[nH]2)c2cccc(C)c2C)n1` (centres unmarked) [Compound 84, 6-[2-(2,3-dimethylphenyl)-2-(1H-imidazol-4-yl)ethyl]-N-(2-methoxyethyl) pyridin-2-amine], the pEC50 was > 8.00.
Take `COc1cccc(C[C@@H](c2cnc[nH]2)c2cccc(C)c2OC)n1` [Compound 10, 2-[(2R)-2-(1H-imidazol-4-yl)-2-(2-methoxy-3-methylphenyl)ethyl]-6-methoxypyridine]: the pEC50 was < 6.30.
As to `Cc1cccc(C(Cc2ccccn2)c2cnc[nH]2)c1C` (centres unmarked) [Compound 50, 2-[2-(2,3-dimethylphenyl)-2-(1H-imidazol-5-yl)ethyl] pyridine], the pEC50 is < 6.30.
Consider `COc1nccc(CC(c2c[nH]cn2)c2cccc(Cl)c2C)n1` (centres unmarked) [Compound 185, 4-[2-(3-chloro-2-tolyl)-2-(4-imidazolyl)ethyl]-2-methoxypyrimidine], for which the pEC50 is > 8.00.
Regarding `Fc1ccc(C(Cc2cccnn2)c2c[nH]cn2)cc1F` (centres unmarked) [Compound 224, 3-[2-(3,4-difluorophenyl)-2-(4-imidazolyl)ethyl] pyridazine], the pEC50 is < 6.30.
The value for `c1cnnc(C[C@@H](c2c[nH]cn2)c2cccc3c2OCC3)c1` (single isomer, unassigned) [Compound 362] was 7.30 to 8.00; that for `FC1(F)Oc2cccc([C@@H](Cc3ccccn3)c3c[nH]cn3)c2O1` [Compound 121, 4-[(R)-1-(4-imidazolyl)-2-(2-pyridyl)ethyl]-2,2-difluoro-2H-1,3-benzodioxole] was 6.30 to 7.30.
To `COc1cc(OC)nc(CC(c2c[nH]cn2)c2cccc(C)c2C)n1` (centres unmarked) [Compound 91, 2-[2-(2,3-dimethylphenyl)-2-(1H-imidazol-4-yl)ethyl]-4,6-dimethoxy-pyrimidine] belongs > 8.00.
For the molecule `Cc1cccc([C@H](Cc2cccc(C(F)(F)F)n2)c2c[nH]cn2)c1C` [Compound 80, 2-[(2S)-2-(2,3-dimethylphenyl)-2-(1H-imidazol-4-yl)ethyl]-6-(trifluoromethyl) pyridine], the pEC50 is > 8.00.
Regarding `COc1nccc(CC(c2c[nH]cn2)c2cccc3cn[nH]c23)n1` (centres unmarked) [Compound 172, 7-[1-(4-imidazolyl)-2-(2-methoxy-4-pyrimidinyl)ethyl]-1H-indazole], the pEC50 is < 6.30.
In the case of `COc1nccc(CC(c2c[nH]cn2)c2cccc3c2OCCCO3)n1` (centres unmarked) [Compound 355, 4-[2-(3,4-dihydro-2H-1,5-benzodioxepin-6-yl)-2-(4-imidazolyl)ethyl]-2-methoxypyrimidine], the pEC50 is 6.30 to 7.30.
Take `Cc1ccc(C(F)(F)F)cc1C(Cc1cccnn1)c1c[nH]cn1` (centres unmarked) [Compound 221, 3-{2-(4-imidazolyl)-2-[5-(trifluoromethyl)-2-tolyl]ethyl}pyridazine]: the pEC50 is < 6.30.
In the case of `c1ccc(C[C@H](c2cnc[nH]2)c2cccc3c2CCO3)nc1` [Compound 41, 2-[(2S)-2-(2,3-dihydro-1-benzofuran-4-yl)-2-(1H-imidazol-4-yl)ethyl]pyridine], the pEC50 is > 8.00.
